Laboratory results reported in US20240132498A1, “CRYSTALLINE FORMS OF 5-(3,4-DIFLUOROBENZYL)-8-((1R,4R)-4-METHYLCYCLOHEXYL)-6,9-DIOXO-2,5,8-TRIAZASPIRO[3.5]NONANE-2-CARBALDEHYDE” (Cytokinetics, Incorporated, priority 2022, published 2024).

What was measured:
[1] = molecular target: T1, bovine cardiac myofibrils (Bos taurus, UniProt Q9BE39); assay: Skinned bovine cardiac myofibril ATPase assay (PK/LDH-coupled); format: biochemical; conditions: bovine cardiac myofibril ATPase activity; Ca2+ for 50% or 75% activation
T1 construct: full-length cardiac myosin in the context of the native sarcomere; from tissue; host or cells: bovine cardiac left ventricular tissue, detergent-skinned myofibrils
T1 sequence (Q9BE39 whole entry): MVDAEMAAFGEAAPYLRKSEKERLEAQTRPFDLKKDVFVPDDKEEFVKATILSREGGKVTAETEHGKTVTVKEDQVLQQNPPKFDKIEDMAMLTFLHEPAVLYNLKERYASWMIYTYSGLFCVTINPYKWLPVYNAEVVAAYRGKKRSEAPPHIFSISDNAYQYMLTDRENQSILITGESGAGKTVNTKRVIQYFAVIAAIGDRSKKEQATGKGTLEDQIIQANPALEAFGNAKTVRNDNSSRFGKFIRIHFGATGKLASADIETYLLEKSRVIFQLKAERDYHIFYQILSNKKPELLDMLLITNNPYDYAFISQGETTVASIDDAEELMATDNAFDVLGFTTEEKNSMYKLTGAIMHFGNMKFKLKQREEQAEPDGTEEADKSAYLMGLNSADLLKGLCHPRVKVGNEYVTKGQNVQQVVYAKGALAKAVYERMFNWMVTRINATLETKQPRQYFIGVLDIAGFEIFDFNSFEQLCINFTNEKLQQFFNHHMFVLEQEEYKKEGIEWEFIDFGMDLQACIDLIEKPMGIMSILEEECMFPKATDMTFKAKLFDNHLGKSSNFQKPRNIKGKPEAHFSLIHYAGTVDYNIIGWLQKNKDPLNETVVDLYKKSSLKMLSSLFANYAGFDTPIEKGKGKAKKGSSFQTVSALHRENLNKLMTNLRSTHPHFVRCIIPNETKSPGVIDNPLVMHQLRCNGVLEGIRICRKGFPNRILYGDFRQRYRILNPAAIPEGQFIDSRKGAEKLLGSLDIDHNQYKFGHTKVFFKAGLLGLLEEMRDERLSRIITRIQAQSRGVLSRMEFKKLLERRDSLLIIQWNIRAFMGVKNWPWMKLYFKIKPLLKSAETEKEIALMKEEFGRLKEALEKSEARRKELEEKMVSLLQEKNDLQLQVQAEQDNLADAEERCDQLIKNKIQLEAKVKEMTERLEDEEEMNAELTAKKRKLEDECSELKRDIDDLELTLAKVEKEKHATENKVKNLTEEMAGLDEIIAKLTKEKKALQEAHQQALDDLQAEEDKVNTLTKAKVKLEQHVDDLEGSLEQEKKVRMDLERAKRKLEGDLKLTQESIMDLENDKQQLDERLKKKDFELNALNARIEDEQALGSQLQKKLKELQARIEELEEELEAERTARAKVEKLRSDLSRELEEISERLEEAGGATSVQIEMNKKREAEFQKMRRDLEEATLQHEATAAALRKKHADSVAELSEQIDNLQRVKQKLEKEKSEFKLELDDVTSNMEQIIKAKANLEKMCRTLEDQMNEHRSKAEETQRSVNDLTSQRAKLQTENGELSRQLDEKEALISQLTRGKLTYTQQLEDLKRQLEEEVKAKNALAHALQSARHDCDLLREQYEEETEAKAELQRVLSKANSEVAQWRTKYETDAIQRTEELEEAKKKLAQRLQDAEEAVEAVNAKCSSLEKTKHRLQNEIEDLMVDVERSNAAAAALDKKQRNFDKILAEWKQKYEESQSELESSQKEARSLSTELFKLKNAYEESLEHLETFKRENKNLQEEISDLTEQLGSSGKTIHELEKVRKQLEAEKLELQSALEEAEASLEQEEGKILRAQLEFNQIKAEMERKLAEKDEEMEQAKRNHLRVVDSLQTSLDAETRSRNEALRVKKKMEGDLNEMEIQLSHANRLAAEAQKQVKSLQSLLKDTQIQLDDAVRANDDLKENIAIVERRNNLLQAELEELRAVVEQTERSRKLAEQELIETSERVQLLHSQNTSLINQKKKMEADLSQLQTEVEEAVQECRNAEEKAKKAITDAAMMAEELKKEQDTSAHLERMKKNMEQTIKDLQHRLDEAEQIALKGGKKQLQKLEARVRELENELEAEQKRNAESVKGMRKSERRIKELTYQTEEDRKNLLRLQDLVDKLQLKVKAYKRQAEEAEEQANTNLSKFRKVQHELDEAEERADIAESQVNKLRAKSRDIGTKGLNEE
T1 sequence (P85100 whole entry partner): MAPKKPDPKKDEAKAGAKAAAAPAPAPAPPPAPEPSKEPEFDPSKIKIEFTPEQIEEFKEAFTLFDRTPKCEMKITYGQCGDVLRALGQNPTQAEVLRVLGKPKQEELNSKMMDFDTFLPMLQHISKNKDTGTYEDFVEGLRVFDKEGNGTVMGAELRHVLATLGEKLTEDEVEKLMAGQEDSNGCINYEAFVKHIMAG
T1 sequence (Q3SZE5 whole entry partner): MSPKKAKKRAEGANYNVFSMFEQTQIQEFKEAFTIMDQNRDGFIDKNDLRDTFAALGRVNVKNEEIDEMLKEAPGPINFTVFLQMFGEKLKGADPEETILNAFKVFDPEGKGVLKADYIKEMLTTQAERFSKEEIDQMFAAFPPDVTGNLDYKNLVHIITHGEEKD
Description: To evaluate the effect of the compound 5-(3,4-difluorobenzyl)-8-((1r,4r)-4-methylcyclohexyl)-6,9-dioxo-2,5,8-triazaspiro[3.5]nonane-2-carbaldehyde on the ATPase activity of full-length cardiac myosin in the context of the native sarcomere, skinned myofibril assays were performed. Bovine cardiac myofibrils were obtained by homogenizing bovine cardiac left ventricular tissue in the presence of a detergent such as triton X-100. Such treatment removes membranes and a majority of the soluble cytoplasmic proteins but leaves intact the cardiac sarcomeric acto-myosin apparatus. Myofibril preparations retain the ability to hydrolyze ATP in a Ca^2+ regulated manner. ATPase activities of such myofibril preparations in the presence and absence of the compound 5-(3,4-difluorobenzyl)-8-((1r,4r)-4-methylcyclohexyl)-6,9-dioxo-2,5,8-triazaspiro[3.5]nonane-2-carbaldehyde was assayed at Ca^2+ concentrations activating to a defined fraction of the maximal rate (i.e., […], 75%). The compound 5-(3,4-difluorobenzyl)-8-((1r,4r)-4-methylcyclohexyl)-6,9-dioxo-2,5, 8-triazaspiro [3.5]nonane-2-carbaldehyde was assessed for its ability to inhibit the steady-state ATPase activity of bovine cardiac myofibrils using pyruvate kinase and lactate dehydrogenase (PK/LDH)-coupled enzyme system. This assay regenerates myosin-produced ADP into ATP by oxidizing NADH, producing an absorbance change at 340 nm. Prior to testing this compound, the bovine cardiac myofibrils were assessed for their calcium responsiveness and the calcium concentration that achieves either a 50% (pCa50) or 75% (pCa75) activation of the myofibril system was chosen as the final condition for assessing the inhibitory activity of this compound. All enzymatic activity was measured in a buffered solution containing 12 mM PIPES (piperazine-N,N′-bis(2-ethanesulfonic acid), 2 mM magnesium chloride at pH 6.8 (PM 12 buffer). Final assay conditions were 1 mg/mL of bovine cardiac myofibrils, 4 U/mL pyruvate kinase, 6 U/mL lactate dehydrogenase, 50 μM ATP, 0.1 mg/mL BSA (bovine serum albumin), 10 ppm antifoam, 1 mM DTT, 0.5 mM NADH, 1.5 mM PEP, 0.6 mM EGTA, and an amount of CaCl2) sufficient to achieve either 50% or 75% activation of the myofibril ATPase activity. The compound tested was prepared in accordance with the synthetic procedures described herein.

[2] = Dog single dose pharmacokinetics; format: in vivo; conditions: male, plasma, intravenous, beagle dogs; for Vd: read-out: Vss
Description: Non-naïve male beagle dogs (8 months −3 years of age, body weight 8-13 kg) were used in this study. All animals for IV administration had free access to food and water; all animals for PO were fasted overnight prior to dosing and were fed approximately 6 hours after dosing. For the animals in PO group, pentagastrin (6.0 μg/kg, i.m.) was administrated 20 minutes before dosing PO formulation and 1.5 hours after the second pentagastrin dosing. The dosing volume was 0.024 mL/kg, the concentration was 250 μg/mL in DMSO/1 N NaOH/PBS. 10 mL of 0.001 N HCl was used to wash the gavage catheter for each animal. The IV dose solution was prepared in 10% DMA/50% PG/40% HPOCD solution (40% w/v aqueous HPOCD) at a concentration of 1.0 mg/mL. The oral dose suspension was prepared by suspending the compound in 0.5% HPMC/0.1% Tween 80 in distilled water at a concentration of 0.2 mg/mL. Concentrations of IV and PO doses were measured at the end of the study. PK parameters were calculated using the nominal dose values if the measured values were within 20% of the nominal values. Blood samples were collected by venipuncture of peripheral veins except the dosing vein at pre-dose, 5 15, 30 min, 1, 2, 4, 6, 8, 24 and 48 h post-dose. Blood samples were centrifuged and resultant plasma was frozen for bioanalysis. Plasma samples were stored at −80° C. before analysis. Plasma samples were analyzed for compound concentrations using the LC/MS/MS method. Briefly, a 50 μL aliquot of each plasma sample was mixed with 100 μL of acetonitrile that contained an internal standard. The mixture was vortexed and centrifuged. Ten (10) μL of the resulting solution was injected onto a reverse-phase C18 column and the resultant peaks detected on a LC/MS/MS equipped with a turbo ionspray ionization source. Sample concentrations below the limit of quantification (BLQ) were treated as zero for PK calculations. PK parameters were estimated from individual animals using noncompartmental analysis of the concentration-time data (Phoenix WinNonLin software, version 64; Pharsight, Mountain View, CA). The elimination rate constant (k) was calculated as the absolute value of the slope of the linear regression of logarithm (log) of the concentration versus time for the last three data points of the concentration-time profiles. Apparent elimination half-life (t1/2) values were calculated as 1n(2)/k. Area under the concentration-time curve (AUC) values were estimated using linear trapezoidal method. AUCt values were calculated from the dosing time to the last measurable concentration. AUC∞ values were calculated as the sum of the corresponding AUC and the ratio of the last detectable concentration divided by k. Plasma clearance (CL) was calculated from Dose/AUC∞. Mean resident time extrapolated to infinity (MRT∞) was estimated by moment analysis. VSS, was calculated from MRT∞×CL. Maximum concentration (Cmax) and time to reach Cmax (tmax) were recorded as observed. As this was a cross-over study, bioavailability was calculated dAUC∞,po/dAUC∞,iv×100% where dAUC was the dose normalized AUC value from the same animal given IV and PO dose. Compounds tested were prepared in accordance with the synthetic procedures described herein.

SMILES | CDMF IC15 [1] | clearance [2] | Vd [2]
CC(=O)N1CC2(C1)C(=O)N(c1ccc(C#N)cc1F)CC(=O)N2Cc1ccc(C(F)(F)F)cc1 [Comparator D, 4-(2-acetyl-6,9-dioxo-5-(4-(trifluoromethyl)benzyl)-2,5,8-triazaspiro[3.5]nonan-8-yl)-3-fluorobenzonitrile] | 1100 nM | 3.55 mL/min/kg | 6.7 L/kg
O=CN1CC2(C1)C(=O)N(c1ccc(F)cc1F)CC(=O)N2Cc1ccc(Cl)cc1 [Comparator A, 5-(4-chlorobenzyl)-8-(2,4-difluorophenyl)-6,9-dioxo-2,5,8-triazaspiro[3.5]nonane-2-carbaldehyde] | 1800 nM | 1.59 mL/min/kg | 5.2 L/kg
O=C1[C@H](C2COC2)N(Cc2ccc(C(F)(F)F)cc2)C(=O)CN1c1ncc(Cl)cc1F [Comparator C, (S)-1-(5-chloro-3-fluoropyridin-2-yl)-3-(oxetan-3-yl)-4-(4-(trifluoromethyl)benzyl)piperazine-2,5-dione, reference compound] | 1100 nM | 4.92 mL/min/kg | 5.91 L/kg

Other lines, results leading:

CDMF IC15 [1] | clearance [2] | Vd [2] | SMILES
1500 nM | 7.57 mL/min/kg | 4.23 L/kg | C[C@H]1CC[C@H](N2CC(=O)N(Cc3ccc(F)c(F)c3)C3(CN(C=O)C3)C2=O)CC1 [Compound 1, 5-(3,4-difluorobenzyl)-8-((1r,4r)-4-methylcyclohexyl)-6,9-dioxo-2,5,8-triazaspiro[3.5]nonane-2-carbaldehyde]
1300 nM | 1.49 mL/min/kg | 4.1 L/kg | O=CN1CC2(C1)C(=O)N([C@H]1CC[C@H](C(F)F)CC1)CC(=O)N2Cc1ccc(C(F)(F)F)cc1 [Comparator E, 8-((1r,4r)-4-(difluoromethyl)cyclohexyl)-6,9-dioxo-5-(4-(trifluoromethyl)benzyl)-2,5,8-triazaspiro[3.5]nonane-2-carbaldehyde]
